# Data as given in patent US6380183B1, “Treatment of diseases involving cyst formation” (Scios, Inc., priority 1998, dated 2002).
# Experiments:
# [1] = test system: polycystic cpk mice; conditions: cited from earlier work
# [2] = test system: guinea pig heart preparation; conditions: Ro5-4864 effects reversed by PK 11195; cited from earlier work
# [3] = test system: Langendorf rat heart; conditions: cited from earlier work
# [4] = test system: isolated working rat heart; conditions: isolated working rat heart model; cited from earlier work
# [5] = test system: human ADPKD cells; test: Promega Cell titer 96 MTT proliferation assay on human ADPKD cells; type: cell-based
# Experimental: In this experiment, the effect of concentrations from […] to 10^−6 M of the known PTBR agonist, Ro5-4864 on the rate of proliferation of human autosomal dominant polycystic kidnay disease (ADPKD) cells was examined.
# Epithelial cells from human ADPKD kidneys have been cultured from the domes of cysts and maintained in primary culture through several passages.
# The rate of cell proliferation was determined using the Promega Cell titer 96 MTT Assay method. This assay is a modification of that described by Mosmann T 1983 J Immunol Meth. 65, 55. […] The relation between cell number and O.D. was linear, and r^2 was >0.98. To determine the effect of agonists on the rate of proliferation, approximately 4000 cells were seeded into individual chambers of a 96-well plate. The cells were incubated initially in DME/F12 medium supplemented only with penicillin, streptomycin, ITS and 1% FBS. After 24 hours,.the FBS was reduced to 0.002% (ITS deleted) to arrest growth. This small amount of serum was needed to potentiate cell attachment to the plastic surface. The human ADPKD cells were then cultured for 48 hours, after adding the cAMP (a stimulator of cell proliferation) at a concentration of 100 μM. A control and forskolin group were examined as well. Preliminary studies determined that growth was sustained over this entire interval.
# Thereafter the effect of a range of concentrations from 10^−12 to 10^−6 M of the known PTBR agonist, Ro5-4864 on the rate of proliferation of […] pretreated with cAMP or not treated (baseline proliferation) was examined. The results are graphically illustrated in FIG. 6. Each data set shown in FIG. 6 is mean, and was obtained from six determinations. Accordingly, the results are highly statistically significant.
# [6] = test system: human atrial strips; conditions: not antagonized by PK 11195; cited from earlier work
smiles,measurement,setting,value
CC(=O)O[C@H]1C(=O)[C@@]2(C)[C@H]([C@H](OC(=O)c3ccccc3)[C@]3(O)C[C@H](OC(=O)[C@H](O)[C@@H](NC(=O)c4ccccc4)c4ccccc4)C(C)=C1C3(C)C)[C@]1(OC(C)=O)CO[C@@H]1C[C@@H]2O [taxol],progression of PKD,[1],inhibit the progression of PKD
same,survival,[1],prolongs the survival
O=C1CN=C(c2ccccc2Cl)c2cc([N+](=O)[O-])ccc2N1 [clonazepam],duration of intracellular action potential and contractility,[2],ineffective
CN1C(=O)CN=C(c2ccccc2)c2cc(Cl)ccc21 [diazepam],contractile force,[3]; Langendorf rat heart,increased contractile force
same,duration of intracellular action potential and contractility,[2],less effective
"CCC(C)N(C)C(=O)c1cc2ccccc2c(-c2ccccc2Cl)n1 (centres unmarked) [PK 11195, 1-(2-chlorophenyl)-N-methyl-N-(1-methylpropyl)-3-isoquinoline carboxamide]",cardiac function,[4],depress cardiac function
CN1C(=O)CN=C(c2ccc(Cl)cc2)c2cc(Cl)ccc21 [Ro5-4864],visual observation of the cells: growth arrest versus cell killing,[5]; human ADPKD cells,arresting cell growth and not be killing the cells
same,basal cell proliferation,"[5]; human ADPKD cells not treated with cAMP (baseline), all concentrations examined, 10^-12 to 10^-6 M, MTT O.D., six determinations",blocked
same,cAMP stimulated cell proliferation,"[5]; human ADPKD cells pretreated with 100 μM cAMP, all concentrations examined, 10^-12 to 10^-6 M, MTT O.D., six determinations",blocked
same,depressant effect on the contraction amplitude (negative inotropic effect),[6],20%
same,cardiac function,[4],depress cardiac function
same,heart rate and left ventricular contractility,[3]; isolated perfused Langendorf rat heart,without affecting
same,coronary flow,"[3]; isolated perfused Langendorf rat heart, effect not antagonized by PK 11195",increase coronary flow
same,duration of intracellular action potential and contractility,[2],decreased
